From ChEMBL document CHEMBL1201862, “PubChem BioAssay data set” (2004)
One block for each compound: values may come before it. Active and inactive are the calls of the source.

Experiments:
[1] = molecular target: Potassium voltage-gated channel subfamily KQT member 2 (Rattus norvegicus, UniProt O88943); experiment: KCNQ2 channel activators, analog series, SAR follow-up, automated patch clamp, KCNQ2-CHO cells (AID 493113); assay type: functional
[2] = molecular target: T1, Apoptotic protease-activating factor 1 (Homo sapiens, UniProt O14727); experiment: activation of Apaf-1 mediated apoptosis – fluorescent, uHTS hits, dose response (AID 588554); assay type: functional
T1 sequence (O14727 whole entry): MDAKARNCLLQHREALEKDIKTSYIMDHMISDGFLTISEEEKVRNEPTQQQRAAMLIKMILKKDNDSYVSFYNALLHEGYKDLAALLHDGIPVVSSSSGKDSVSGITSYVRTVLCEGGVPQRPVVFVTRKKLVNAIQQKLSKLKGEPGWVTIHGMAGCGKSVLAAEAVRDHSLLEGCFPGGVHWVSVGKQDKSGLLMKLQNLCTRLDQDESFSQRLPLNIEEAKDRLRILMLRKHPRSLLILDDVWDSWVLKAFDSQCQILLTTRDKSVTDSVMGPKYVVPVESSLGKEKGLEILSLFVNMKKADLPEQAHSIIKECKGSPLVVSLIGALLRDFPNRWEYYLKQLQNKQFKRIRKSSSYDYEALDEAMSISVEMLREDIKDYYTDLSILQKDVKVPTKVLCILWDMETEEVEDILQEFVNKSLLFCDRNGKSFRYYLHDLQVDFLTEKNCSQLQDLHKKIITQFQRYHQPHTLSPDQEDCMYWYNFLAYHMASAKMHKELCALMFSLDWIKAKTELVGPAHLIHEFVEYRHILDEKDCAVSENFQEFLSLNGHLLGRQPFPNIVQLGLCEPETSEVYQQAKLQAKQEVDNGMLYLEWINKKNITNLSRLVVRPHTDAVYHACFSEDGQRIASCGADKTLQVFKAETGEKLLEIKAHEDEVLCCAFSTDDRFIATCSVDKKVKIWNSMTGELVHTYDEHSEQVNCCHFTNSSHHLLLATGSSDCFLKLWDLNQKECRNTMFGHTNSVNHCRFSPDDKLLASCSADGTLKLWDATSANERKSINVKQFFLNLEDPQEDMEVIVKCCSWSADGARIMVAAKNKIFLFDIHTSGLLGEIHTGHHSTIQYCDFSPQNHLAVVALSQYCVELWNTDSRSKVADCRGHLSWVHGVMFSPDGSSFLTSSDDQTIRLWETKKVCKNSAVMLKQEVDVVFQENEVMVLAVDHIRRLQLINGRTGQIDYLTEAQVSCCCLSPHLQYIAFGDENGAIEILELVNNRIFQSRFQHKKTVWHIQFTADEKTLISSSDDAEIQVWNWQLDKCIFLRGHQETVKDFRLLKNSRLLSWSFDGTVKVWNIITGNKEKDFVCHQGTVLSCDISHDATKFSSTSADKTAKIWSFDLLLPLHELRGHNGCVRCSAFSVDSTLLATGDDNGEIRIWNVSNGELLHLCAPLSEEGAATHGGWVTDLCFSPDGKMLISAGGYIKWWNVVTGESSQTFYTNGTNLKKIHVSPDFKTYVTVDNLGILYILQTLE

[3] = control 3'UTR Renilla luciferase suppression, dose response, counter-screen for Shn3 inhibitor project, cell-based, Clone20-Shn3RL, cherry-picked (AID 624133); assay type: functional
[4] = molecular target: Cysteine protease ATG4B (Homo sapiens, UniProt Q9Y4P1); experiment: ATG4B protease inhibitors, dose response, biochemical, fluorescence, set 2 (AID 588584); assay type: functional
Sequence of Cysteine protease ATG4B (Q9Y4P1 whole entry): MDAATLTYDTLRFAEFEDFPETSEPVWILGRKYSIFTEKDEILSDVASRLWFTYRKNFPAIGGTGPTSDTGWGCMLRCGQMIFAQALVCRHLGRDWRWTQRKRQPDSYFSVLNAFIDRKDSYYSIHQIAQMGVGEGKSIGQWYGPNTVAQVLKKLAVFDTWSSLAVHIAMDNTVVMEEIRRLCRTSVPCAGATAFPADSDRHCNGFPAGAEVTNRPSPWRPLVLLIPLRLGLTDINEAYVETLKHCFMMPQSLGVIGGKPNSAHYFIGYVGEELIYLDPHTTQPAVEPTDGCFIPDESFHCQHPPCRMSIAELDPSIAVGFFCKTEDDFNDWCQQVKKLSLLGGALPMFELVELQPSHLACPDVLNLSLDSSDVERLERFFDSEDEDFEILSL

[5] = system: BJ; experiment: cells; assay type: functional, cell-based; conditions: Homo sapiens
[6] = system: BJ; experiment: cytotoxicity toward BJ-TERT fibroblasts, dose response, cell-based, RAS-independent, luminescence (AID 1933); assay type: functional; conditions: Homo sapiens
[7] = system: BJ; experiment: cytotoxicity toward BJ-TERT-LT-ST fibroblasts, dose response, cell-based, RAS-independent, luminescence (AID 1935); assay type: functional; conditions: Homo sapiens;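 also: BJ fibroblasts immortalized with TERT plus LT and ST oncogenes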
[8] = cytotoxicity toward DRD oncogenic fibroblasts, dose response, cell-based, non-viral oncogenic, luminescence (AID 1934); assay type: functional; conditions: Homo sapiens
[9] = Shn3 3'UTR reporter inhibitors, dose response, cell-based, Clone20 osteoblasts, firefly luciferase, cherry-picked (AID 624132); assay type: functional;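 also: firefly luciferase luminescence from reporter carrying the Shn3 3'UTR in osteoblasts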
[10] = molecular target: Phospholipase A2 (Homo sapiens, UniProt P04054); experiment: PLA2 enzyme inhibitors, dose response, counter-screen for ATG4B inhibitor project, biochemical, set 2 (AID 588586); assay type: functional
Sequence of Phospholipase A2 (P04054 whole entry): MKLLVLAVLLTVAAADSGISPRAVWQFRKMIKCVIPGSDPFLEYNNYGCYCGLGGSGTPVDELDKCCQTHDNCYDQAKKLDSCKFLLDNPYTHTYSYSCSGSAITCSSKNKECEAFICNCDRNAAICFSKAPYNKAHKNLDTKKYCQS

Sequence of Potassium voltage-gated channel subfamily KQT member 2 (O88943 whole entry): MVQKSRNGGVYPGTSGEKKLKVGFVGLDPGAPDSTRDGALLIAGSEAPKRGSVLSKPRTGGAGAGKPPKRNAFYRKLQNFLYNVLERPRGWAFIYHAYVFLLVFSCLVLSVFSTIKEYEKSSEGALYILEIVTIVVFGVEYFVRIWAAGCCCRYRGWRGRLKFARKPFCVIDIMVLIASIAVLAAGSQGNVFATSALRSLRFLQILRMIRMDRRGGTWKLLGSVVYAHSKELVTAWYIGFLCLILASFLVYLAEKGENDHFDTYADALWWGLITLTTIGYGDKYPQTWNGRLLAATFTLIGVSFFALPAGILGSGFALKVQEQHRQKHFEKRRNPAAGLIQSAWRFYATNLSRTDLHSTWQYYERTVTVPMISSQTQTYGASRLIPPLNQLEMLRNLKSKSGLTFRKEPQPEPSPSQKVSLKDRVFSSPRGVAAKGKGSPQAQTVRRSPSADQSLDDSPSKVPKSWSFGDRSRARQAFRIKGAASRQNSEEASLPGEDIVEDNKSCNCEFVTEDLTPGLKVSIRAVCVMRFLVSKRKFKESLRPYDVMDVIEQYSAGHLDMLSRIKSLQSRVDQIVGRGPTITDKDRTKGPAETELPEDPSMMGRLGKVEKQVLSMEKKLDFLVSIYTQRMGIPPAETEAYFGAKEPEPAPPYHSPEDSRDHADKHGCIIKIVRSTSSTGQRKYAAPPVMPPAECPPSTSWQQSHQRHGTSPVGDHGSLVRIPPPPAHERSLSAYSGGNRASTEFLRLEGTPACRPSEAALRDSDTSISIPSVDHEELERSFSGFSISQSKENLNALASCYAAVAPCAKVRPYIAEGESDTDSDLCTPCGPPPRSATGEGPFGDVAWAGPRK

EC50 [1]: 0.49 µM (active)
Structure (SMILES): Cc1cc(C)c(NC(=O)CCC2CCCC2)c(C)c1

EC50 [2]: 9.2 µM (active)
Structure (SMILES): O=C1C2(CCCC13COC(c1ccc(O)cc1)OC3)COC(c1ccc(O)cc1)OC2 (stereo not given)

Structure (SMILES): O=C(OCCN1C(=O)c2cccc3c(N4CCOCC4)ccc(c23)C1=O)c1ccccc1Cl
AC50 [3]: 6.25 µM (active)
IC50 [4]: > 80 µM (inactive)
EC50 [5]: 21.5 µM (active)
EC50 [6]: 17.2 µM (active)
EC50 [7]: > 150 µM (inconclusive)
EC50 [8]: 18.8 µM (active)
AC50 [9]: 3.06 µM (active)
IC50 [10]: > 80 µM (inactive)
